Reference: patent US8088734B2, “Oral delivery of peptides” (Unigene Laboratories Inc., priority 2003, dated 2012)

What was measured:
[1] = Oral bioavailability of sCTgly vs sCT-NH2, enteric coated capsules, dog model; assay type: in vivo, Beagle dogs; conditions: for Cmax: male, Beagle, read-out: Mean Cmax ± SEM; for Cmax / Mean AUC ± SERM: oral enteric coated capsule, dog plasma, adjusted to a 1 mg dose
Protocol: A study was carried out in a dog model to compare the pharmacokinetic parameters of orally delivered glycine-extended sCT (sCTgly) with those of amidated sCT (sCT-NH2).
Eight adult male Beagle dogs, weighing between 12 and 16 kg, were used in this study. Dogs were fasted overnight prior to administration of the test peptide, but were allowed free access to water. A wash-out period of at least 1 week occurred between experiments for each dog. Each dog received an orally administered, enteric coated gelatin capsule that contained 1.11 mg of sCTgly in week 1 and 1.11 mg of sCT-NH2 in week 2. Prior to capsule administration, a 20-gauge intravenous (IV) catheter was inserted into a brachial vein for the collection of blood samples. Two pre-dose samples of 3 ml each were collected from the brachial vein.
After administration of the capsule, 3 ml blood samples were collected from the brachial vein at 15 minute intervals up to 240 minutes post-administration. Blood samples were collected into new heparinized Monovette sampling syringes. Samples were placed on ice before being centrifuged for 10 minutes at approximately 2750 rpm at 2-8° C. The plasma supernatant was transferred to color-coded microcentrifuge tubes labeled with the time point and stored frozen at −20° C. prior to analysis to determine the concentration of sCTgly or sCT-NH2.
The concentration of sCTgly in plasma was determined by radioimmunoassay with an RIA kit from Peninsula Laboratories. sCT-NH2 concentration in plasma was determined by a sandwich ELISA immunoassay using a kit from Diagnostic Systems Laboratories Inc. From the pharmacokinetic profile of sCTgly or sCT-NH2 in plasma, the parameters of Cmax (peak of plasma concentration in pg/ml) and AUC (Area under the Curve) were determined. All measured values were normalized for a 1 mg peptide dose for either of the two peptides.

[2] = Blood levels of salmon calcitonin after direct injection into duodenum, ileum or colon of rats; assay type: in vivo; conditions: active components injected directly into duodenum
From the text: The acid is believed to lower the local intestinal pH (where the active agent has been released) to levels below the optimal range for many intestinal proteases and other intestinal enzymes. This decrease in pH reduces the proteolytic activity of the intestinal proteases, thus affording protection to the peptide and the membrane translocator from potential degradation. The activity of these proteases is diminished by the temporarily acidic environment provided by the invention. It is preferred that sufficient acid be provided that local intestinal pH is lowered temporarily to 5.5 or below, preferably 4.7 or below and more preferably 3.5 or below. The sodium bicarbonate test described below (in the section captioned “the pH-Lowering Agent”) is indicative of the required acid amount.

[3] = cited from earlier work
in vivo = conditions: rat; for AUC / Cmax / level at 0.25 h / level at 0.5 h / level at 1 h / level at 2 h: female; for level at 0.25 h / level at 0.5 h / level at 1 h / level at 2 h: 2.5 mg
From the text: The effect of C-terminal amidation on the absorption of luteinizing hormone-releasing hormone (LHRH-NH2) from the duodenum of anesthetized rats was examined. In this study the absorption characteristics of LHRH-NH2, a naturally occurring C-terminal amidated decapeptide were compared with that of LHRH-COOH, a decapeptide with the same amino acid sequence as that of LHRH-NH2 except that the C-terminal amino acid of LHRH-COOH is gly-COOH instead of gly-NH2. Twelve female rats were anesthetized and implanted with a cannula in the carotid artery for taking blood samples at various times. Six rats were injected in the duodenum through a 27 gauge needle with 0.5 mL of LHRH-NH2 (5 mg/mL) in 0.5M citric acid and lauroylcarnitine (10 mg/mL) and six rats with injected in the duodenum with 0.5 mL LHRH-COOH) (5 mg/mL) in the same formulation. Samples of blood were taken prior to the administration of formulated LHRH-NH2 or LHRH-COOH and at 5, 15, 30, 60, and 120 minutes after peptide administration. The resulting plasma samples were analyzed for LHRH-NH2 or LHRH-COOH by high performance liquid chromatography equipped with a fluorescence detector to measure the concentration of peptide in plasma.

## CC(C)C[C@H](NC(=O)[C@H](CCCCN)NC(=O)CNC(=O)[C@H](CC(C)C)NC(=O)[C@@H](NC(=O)[C@@H]1CSSC[C@H](N)C(=O)N[C@@H](CO)C(=O)N[C@@H](CC(N)=O)C(=O)N[C@@H](CC(C)C)C(=O)N[C@@H](CO)C(=O)N[C@@H]([C@@H](C)O)C(=O)N1)C(C)C)C(=O)N[C@@H](CO)C(=O)N[C@@H](CCC(N)=O)C(=O)N[C@@H](CCC(=O)O)C(=O)N[C@@H](CC(C)C)C(=O)N[C@@H](Cc1c[nH]cn1)C(=O)N[C@@H](CCCCN)C(=O)N[C@@H](CC(C)C)C(=O)N[C@@H](CCC(N)=O)C(=O)N[C@H](C(=O)N[C@@H](Cc1ccc(O)cc1)C(=O)N1CCC[C@H]1C(=O)N[C@@H](CCCNC(=N)N)C(=O)N[C@H](C(=O)N[C@@H](CC(N)=O)C(=O)N[C@H](C(=O)NCC(=O)N[C@@H](CO)C(=O)NCC(=O)N[C@H](C(=O)N1CCC[C@H]1C(N)=O)[C@@H](C)O)[C@@H](C)O)[C@@H](C)O)[C@@H](C)O [sCT-NH2]
[1]
  Cmax: 3.2 ng/mL
  Mean AUC ± SERM: 148,000 ± 18,200 pg · min/ml
[1]; oral, dog
  mean AUC relative to sCTgly: 5.9 times
  mean Cmax relative to sCTgly: 6.6 times
[2]
  Tmax for blood levels: 5 to 15 min
[3]; man
  blood levels after injection at conventional dosages: no detectable blood levels more than two hours after injection
  duration of beneficial effect on osteoclasts: more than 24 hours
[3]; nasally administered, 200 International units
  peak levels at which proven effective against osteoporosis: ≥ 10 picograms per milliliter
[3]; patients
  peak levels at which some patients report gastrointestinal distress: ≥ 200 picograms per milliliter
[3]; subcutaneous administration in man
  half-life: 20 to 40 min
[3]; subcutaneous administration, 100 International units
  peak serum concentration: about 250 picograms per milliliter

## CC(C)C[C@H](NC(=O)CNC(=O)[C@H](Cc1ccc(O)cc1)NC(=O)[C@H](CO)NC(=O)[C@H](Cc1c[nH]c2ccccc12)NC(=O)[C@H](Cc1cnc[nH]1)NC(=O)[C@@H]1CCC(=O)N1)C(=O)N[C@@H](CCCNC(=N)N)C(=O)N1CCC[C@H]1C(=O)NCC(N)=O [LHRH-NH2]
In vivo
  AUC: 1820 ng·h/mL
  Cmax: 3280 ± 893 ng/mL
  level at 0.25 h: 3280 ± 893 ng/mL
  level at 0.5 h: 2900 ± 612 ng/mL
  level at 1 h: 1280 ± 282 ng/mL
  level at 2 h: 382 ± 103 ng/mL
  AUC relative to free acid form of LHRH: 6 times
  amount detected in plasma relative to LHRH-COOH: 5 times
  time at which maximum concentration (Cmax) was detected in plasma: five

## CC(C)C[C@H](NC(=O)[C@H](CCCCN)NC(=O)CNC(=O)[C@H](CC(C)C)NC(=O)[C@@H](NC(=O)[C@@H]1CSSC[C@H](N)C(=O)N[C@@H](CO)C(=O)N[C@@H](CC(N)=O)C(=O)N[C@@H](CC(C)C)C(=O)N[C@@H](CO)C(=O)N[C@@H]([C@@H](C)O)C(=O)N1)C(C)C)C(=O)N[C@@H](CO)C(=O)N[C@@H](CCC(N)=O)C(=O)N[C@@H](CCC(=O)O)C(=O)N[C@@H](CC(C)C)C(=O)N[C@@H](Cc1c[nH]cn1)C(=O)N[C@@H](CCCCN)C(=O)N[C@@H](CC(C)C)C(=O)N[C@@H](CCC(N)=O)C(=O)N[C@H](C(=O)N[C@@H](Cc1ccc(O)cc1)C(=O)N1CCC[C@H]1C(=O)N[C@@H](CCCNC(=N)N)C(=O)N[C@H](C(=O)N[C@@H](CC(N)=O)C(=O)N[C@H](C(=O)NCC(=O)N[C@@H](CO)C(=O)NCC(=O)N[C@H](C(=O)N1CCC[C@H]1C(=O)NCC(=O)O)[C@@H](C)O)[C@@H](C)O)[C@@H](C)O)[C@@H](C)O [sCTgly]
[1]
  Cmax: 0.485 ± 0.106 ng/mL
  Mean AUC ± SERM: 25,125 ± 5,525 pg · min/ml

## CC(C)C[C@H](NC(=O)CNC(=O)[C@H](Cc1ccc(O)cc1)NC(=O)[C@H](CO)NC(=O)[C@H](Cc1c[nH]c2ccccc12)NC(=O)[C@H](Cc1cnc[nH]1)NC(=O)[C@@H]1CCC(=O)N1)C(=O)N[C@@H](CCCN=C(N)N)C(=O)N1CCC[C@H]1C(=O)NCC(=O)O [LHRH-COOH]
In vivo
  AUC: 296 ng·h/mL
  Cmax: 654 ± 103 ng/mL
  level at 0.25 h: 654 ± 103 ng/mL
  level at 0.5 h: 391 ± 81 ng/mL
  level at 1 h: 163 ± 68 ng/mL
  level at 2 h: 56 ± 19 ng/mL
  time at which maximum concentration (Cmax) was detected in plasma: five
